Source: publication PMC9095875, “Solubility measurement and thermodynamic modeling of pantoprazole sodium sesquihydrate in supercritical carbon dioxide” (Scientific Reports, 2022)
Where “and” joins values, the source holds several entries; their conditions need not be identical. Equal values may be shown once. Marks after values point to notes of the source that are not given here.

What was measured:
[1] = Solubility of solid drug in supercritical carbon dioxide (isobaric-isothermal method, UV-Vis at 290 nm); type: physicochemical; settings: for y2 × 10^4 (mole fraction): value is y2 × 10^4
Experimental: The method utilized is considered as the isobaric-isothermal method. Each measurement is performed with high precision, during experiments; temperature is maintained at desired value within ± 0.1 K. A known amount of pantoprazole sodium sesquihydrate drug (solute) has been used in the equilibrium cell to measure the solubility data. The capacity of the cell is 70 mL. A magnetic stirrer was mounted with the cell to measure the solubility data. A magnetic stirrer that is mounted with the equilibrium cell helps in attaining equilibrium between the solute and the ScCO2. To confirm equilibrium attainment, the experiments are done with a fresh sample at specified temperature and pressure at various time intervals (5 min, 10 min, 20 min, 30 min, 40 min, 50 min and 60 min) and the solubility readings are recorded. It is observed that the solubility is independent of time after 30 min. Thus, for correct results after 60 min, samples are considered for analysis. After equilibrium, 600 μL of a saturated sample is collected in dematerialized water (DM water's conductivity is 1μS/cm) via a 6-way port, two-status valve. More details are readily available elsewhere[30],[31]. This experimental setup has already been validated in the previous work with alpha-tocopherol and naphthalene. Each experiment is carried out in triplicate. Spectrophotometer (UV-Visible, Model UNICO-4802) is utilized to quantify the pantoprazole sodium sesquihydrate solubility. The drug test samples were prepared by dissolving known weights of drug in known volume of DM water. Pantoprazole sodium sesquihydrate samples were analyzed at 290 nm and calibrations curve was established, indicating R^2 of 0.99. The following sets of equations are used to calculate equilibrium mole fraction, y2, and solubility, S (g/L), in ScCO2:1 y2=nsolute/nsolute+nCO2, where:2 […]/mol,and 3 […]/mol 4 […]) where nsolute and nCO2 are moles of solute (Pantoprazole sodium sesquihydrate) and CO2 in the sampling loop, respectively, Cs is the solute concentration (g/L), Ms and MCO2 are molecular weights of the solute and CO2 and S (g/L) is the equilibrium solubility.

[2] = Thermodynamic properties calculated from constants of the Chrastil, reformulated Chrastil and Bartle solubility models; type: physicochemical
From the text: It is the first solvate complex model and correlates solubility as a function of supercritical fluid density and temperature as:18 y2=ρ1^κ-1[…] where κ and E0-E1 are model constants. Since Eq. (13) is dimensionally inconsistent[24],[26],[39], it is dimensionally corrected and known as Reformulated […] model:19 y2=[…] where κ^' and E0-E1 are model constants. It is one of the successful empirical models and correlates solubility as a function of temperature, supercritical fluid density and total pressure as:20 […] where G0-G2 are model constants. From parameter G1 , the vaporization enthalpy is ΔvapH=-G1R in which R is universal gas constant. The new solution model proposed in this work has three adjustable parameters ( ΔCp , a11 and a22 ). For regression, these parameters are treated as temperature dependent and temperature independent. Although conceptually, these parameters are temperature dependent[43],[44], however, in literature, these parameters are handled as temperature independent over a small temperature range[45]. Therefore, both temperature dependent and independent results are reported in this study. For regression, melting temperature and molar volume of pantoprazole sodium sesquihydrate are needed. The required melting temperature is obtained from the material's source and the molar volume of the solid pantoprazole sodium sesquihydrate is calculated using Immirzi and […] method. […] The proposed model correlates the data less than 14.9% and 16.23% in terms of AARD% for temperature dependent and independent cases, respectively. […] The correlations of the solubility data with temperature dependent parameters are better than temperature independent parameters. […], Sodeifian et al., and […] models correlate the solubility data. The correlations of the data are quite satisfactory for […] model compared to […] and Sodeifian models. From the conventional model constants, the thermodynamic properties, namely total heat of enthalpy of vaporization and solvation are calculated and reported in Table 6. […]

## COc1ccnc(C[S+]([O-])c2nc3ccc(OC(F)F)cc3[nH]2)c1OC (stereo not shown) [pantoprazole sodium sesquihydrate, Pantoprazole sodium sesquihydrate]
[1]; in ScCO2, 308 K, 12 MPa, ScCO2 density 769 kg/m^3
  y2 × 10^4 (mole fraction): 0.0648 mole fraction
[1]; in ScCO2, 308 K, 15 MPa, ScCO2 density 817 kg/m^3
  y2 × 10^4 (mole fraction): 0.0764 mole fraction
[1]; in ScCO2, 308 K, 18 MPa, ScCO2 density 849 kg/m^3
  y2 × 10^4 (mole fraction): 0.0921 mole fraction
[1]; in ScCO2, 308 K, 21 MPa, ScCO2 density 875 kg/m^3
  y2 × 10^4 (mole fraction): 0.0958 mole fraction
[1]; in ScCO2, 308 K, 24 MPa, ScCO2 density 896 kg/m^3
  y2 × 10^4 (mole fraction): 0.1239 mole fraction
[1]; in ScCO2, 308 K, 27 MPa, ScCO2 density 914 kg/m^3
  y2 × 10^4 (mole fraction): 0.1489 mole fraction
[1]; in ScCO2, 318 K, 12 MPa, ScCO2 density 661 kg/m^3
  y2 × 10^4 (mole fraction): 0.0548 mole fraction
[1]; in ScCO2, 318 K, 15 MPa, ScCO2 density 744 kg/m^3
  y2 × 10^4 (mole fraction): 0.0580 mole fraction
[1]; in ScCO2, 318 K, 18 MPa, ScCO2 density 791 kg/m^3
  y2 × 10^4 (mole fraction): 0.0990 mole fraction
[1]; in ScCO2, 318 K, 21 MPa, ScCO2 density 824 kg/m^3
  y2 × 10^4 (mole fraction): 0.1192 mole fraction
[1]; in ScCO2, 318 K, 24 MPa, ScCO2 density 851 kg/m^3
  y2 × 10^4 (mole fraction): 0.1436 mole fraction
[1]; in ScCO2, 318 K, 27 MPa, ScCO2 density 872 kg/m^3
  y2 × 10^4 (mole fraction): 0.1930 mole fraction
[1]; in ScCO2, 328 K, 12 MPa, ScCO2 density 509 kg/m^3
  y2 × 10^4 (mole fraction): 0.0381 mole fraction
[1]; in ScCO2, 328 K, 15 MPa, ScCO2 density 656 kg/m^3
  y2 × 10^4 (mole fraction): 0.0498 mole fraction
[1]; in ScCO2, 328 K, 18 MPa, ScCO2 density 725 kg/m^3
  y2 × 10^4 (mole fraction): 0.1388 mole fraction
[1]; in ScCO2, 328 K, 21 MPa, ScCO2 density 769 kg/m^3
  y2 × 10^4 (mole fraction): 0.1579 mole fraction
[1]; in ScCO2, 328 K, 24 MPa, ScCO2 density 802 kg/m^3
  y2 × 10^4 (mole fraction): 0.2354 mole fraction
[1]; in ScCO2, 328 K, 27 MPa, ScCO2 density 829 kg/m^3
  y2 × 10^4 (mole fraction): 0.3106 mole fraction
[1]; in ScCO2, 338 K, 12 MPa, ScCO2 density 388 kg/m^3
  y2 × 10^4 (mole fraction): 0.0301 mole fraction
[1]; in ScCO2, 338 K, 15 MPa, ScCO2 density 557 kg/m^3
  y2 × 10^4 (mole fraction): 0.0403 mole fraction
[1]; in ScCO2, 338 K, 18 MPa, ScCO2 density 652 kg/m^3
  y2 × 10^4 (mole fraction): 0.1548 mole fraction
[1]; in ScCO2, 338 K, 21 MPa, ScCO2 density 710 kg/m^3
  y2 × 10^4 (mole fraction): 0.1938 mole fraction
[1]; in ScCO2, 338 K, 24 MPa, ScCO2 density 751 kg/m^3
  y2 × 10^4 (mole fraction): 0.3408 mole fraction
[1]; in ScCO2, 338 K, 27 MPa, ScCO2 density 783 kg/m^3
  y2 × 10^4 (mole fraction): 0.4634 mole fraction
[1]; solubility isotherms 308-338 K in ScCO2, from Fig. 2
  cross over pressure: around 16.0 MPa
[2]; Bartle et al. and Chrastil models combination (difference of ΔHvap and ΔHtotal)
  Enthalpy of solvation, ΔHsol: −15.829 kJ/mol and −15.829^d kJ/mol
[2]; from Bartle et al. model (ΔvapH = −G1R)
  Enthalpy of vaporization ΔHvap: ~75.261^c (approximate value) kJ/mol
[2]; from Reformulated Chrastil model
  Total enthalpy, ΔHtotal: 39.832^b kJ/mol
